Results on six molecules are retold here after patent publication US4795751A, “5-substituted-6,8-difluoroquinolines useful as antibacterial agents” (Dainippon Pharmaceutical Co., Ltd., priority 1985, dated 1989).

Usually LD50 stands for the dose expected to kill half of the subjects tested. Higher therefore signals a less toxic substance. As a reminder, the ED50 is the dose at which the effect has come halfway, by size or by number of responders.

Converted amounts (≈) assume the structure as drawn.

One data set deals with S. aureus No. 80. Briefly: In vitro antibacterial activity, twofold agar-dilution method. Format: cell-based. To be noted: Staphylococcus aureus; S. aureus No. 80 (Gram +); Mueller-Hinton agar, 20 h, 37° C.; calculated for free base; read-out: minimum inhibitory concentration (MIC). The procedure: (§1) The numbers in the table show minimum inhibitory concentrations (MIC) (μg/ml), calculated for free base. The minimum inhibitory concentration was determined by the twofold agar-dilution method, which was recommended by Japan Society of Chemotherapy (Chemotherapy, 29(1), 76(1981)), using Muller-Hinton agar. One loopful of an overnight culture of test organisms in Mueller-Hinton broth was inoculated onto 10-ml drug-containing agar layers in petri dishes. Bacterial inocula contained approximately 10^6 colonyl-formingunits. Bacterial growth was observed after 20-hour incubation at 37° C. The MIC was defined as the lowest drug concentration which prevented visible bacterial growth.

The subject of the next data set is S. aureus No. 50774. The description is as above. The format is cell-based. As to conditions: Staphylococcus aureus; S. aureus No. 50774 (Gram +); Mueller-Hinton agar, 20 h, 37° C.; calculated for free base; read-out: minimum inhibitory concentration (MIC). As for the experimental part:
as §1

A further data set relates to S. epidermidis No. 8. The data set is described as above. The format is cell-based. As to conditions: Staphylococcus epidermidis; S. epidermidis No. 8 (Gram +); Mueller-Hinton agar, 20 h, 37° C.; calculated for free base; read-out: minimum inhibitory concentration (MIC). The procedure:
as §1

A further data set relates to P. aeruginosa No. 12. Described as above. Format: cell-based. As to conditions: Pseudomonas aeruginosa; P. aeruginosa No. 12 (Gram -); Mueller-Hinton agar, 20 h, 37° C.; calculated for free base; read-out: minimum inhibitory concentration (MIC). As for the experimental part: as §1
The next data set relates to S. aureus 209P JC-1. The description is as above. As to conditions: Staphylococcus aureus; S. aureus 209P JC-1 (Gram +); Mueller-Hinton agar, 20 h, 37° C.; calculated for free base; read-out: minimum inhibitory concentration (MIC). The format is cell-based. The procedure: as §1
A further data set concerns Al. faecalis P-7001. The data set is described as above. Format: cell-based. As to conditions: Alcaligenes faecalis, P7001; Al. faecalis P-7001 (Gram -); Mueller-Hinton agar, 20 h, 37° C.; calculated for free base; read-out: minimum inhibitory concentration (MIC). As for the experimental part:
as §1

The next data set deals with Ac. calcoaceticus P-6901. The data set is described as above. As to conditions: Acinetobacter calcoaceticus, P6901; Ac. calcoaceticus P-6901 (Gram -); Mueller-Hinton agar, 20 h, 37° C.; calculated for free base; read-out: minimum inhibitory concentration (MIC). Format: cell-based. As for the experimental part:
as §1

A further data set relates to E. coli P-51213. Described as above. To be noted: Escherichia coli, P51213; E. coli P-51213 (Gram -); Mueller-Hinton agar, 20 h, 37° C.; calculated for free base; read-out: minimum inhibitory concentration (MIC). Format: cell-based. The procedure: as §1
A further data set deals with B. subtilis PCI 219. The data set is described as above. The format is cell-based. To be noted: Bacillus subtilis, PCI219; B. subtilis PCI 219 (Gram +); Mueller-Hinton agar, 20 h, 37° C.; calculated for free base; read-out: minimum inhibitory concentration (MIC). The procedure: as §1
The test system of another data set is M. bovis P-7101. Put plainly: microbe, parasite or virus in culture. To be noted: Mycobacterium tuberculosis variant bovis, P7101, 20 h, read-out: minimum inhibitory concentration (MIC). Format: cell-based.
A further data set deals with male mice (ddY). Briefly: Acute oral toxicity in mice. As to conditions: conclusion in words from Table 5. As for the experimental part: (§2) A solution containing each of compounds 1, 2 and 3 of this invention in various concentrations was orally given to male mice (ddY) at a dose of 0.1 ml per 10 g of body weight. The number of dead mice was counted after 7 days, and the value of median lethal dose (LD50, mg/kg) was calculated in accordance with the Behrens-Kaerber method.

Data set [1] can be described thus: Acute oral toxicity in mice. To be noted: mouse, in vivo, po. The procedure: as §2
Data set [2] relates to Pseudomonas aeruginosa 12. Put plainly: In vivo efficacy against systemic infections in mice. Set-up: species or system Pseudomonas aeruginosa; male mice (ddY-S). As to conditions: Pseudomonas aeruginosa, 12, 168 h, oral, intraperitoneal infection about 5×10^3 cells, 4% mucin, twice, immediately and 6 h after infection, 7 days, calculated for free base, read-out: median effective dose (ED50). As for the experimental part:
(§3) Compounds were each dissolved in deionized water. Each of the solutions was orally administered to mice infected with each of the test organisms under the conditions shown hereinbelow, and the median effective dose (ED50) was calculated by probit analysis. The numerals in the table show ED50 (mg/kg) value, calculated for free base.
(§4) Mice: Male mice (ddY-S) weighing about 20 g
Pseudomonas aeruginosa 12
Intraperitoneal infection with about 5×10^3 cells per mouse suspended in tryptosoy broth with 4% mucin.
(§5) Four times, immediately, 6, 24 and 30 hours after infection in case of Streptococcus pneumoniae 1 Neufeld. Twice, immediately and 6 hours after infection in case of other organisms.
(§6) For 14 days in case of Staphylococcus aureus 50774 and Streptocuccus pneumoniae 1 Neufeld. For 7 days in case of other organisms.

Data set [3] relates to Streptococcus pyogenes A65. The description is as above. To be noted: A65, 168 h, oral, intraperitoneal infection 3×10^7 cells, twice, immediately and 6 h after infection, 7 days, calculated for free base, read-out: median effective dose (ED50). On the set-up: species or system Streptococcus pyogenes; male mice (ddY-S). The procedure: as §3, §4
Streptococcus pyogenes A65
Intraperitoneal infection with 3×10^7 cells per mouse suspended in brain heart infusion broth.
as §5, §6

On to `CN1CCN(c2c(F)c(N)c3c(=O)c(C(=O)O)cn(C4CC4)c3c2F)CC1` [Compound 4, 5-Amino-1-cyclopropyl-6,8-difluoro-7-(4-methyl-1-piperazinyl)-1,4-dihydro-4-oxoquinoline-3-carboxylic acid], for which the MIC with S. aureus No. 80 is 0.025 µg/mL (≈ 0.0661 µM); in the data set with S. aureus No. 50774 it was 0.05 µg/mL (≈ 0.132 µM); in the data set on S. epidermidis No. 8 it was 0.05 µg/mL (≈ 0.132 µM); in the data set on P. aeruginosa No. 12 it was 0.2 µg/mL (≈ 0.529 µM); in the data set on S. aureus 209P JC-1, 0.1 µg/mL (≈ 0.264 µM); in the data set with Al. faecalis P-7001, 0.2 µg/mL (≈ 0.529 µM). The MIC was 0.025 µg/mL (≈ 0.0661 µM) in the data set on Ac. calcoaceticus P-6901, 0.1 µg/mL (≈ 0.264 µM) in the data set on E. coli P-51213, 0.1 µg/mL (≈ 0.264 µM) in the data set with B. subtilis PCI 219 and 0.39 µg/mL (≈ 1.03 µM) in the data set on M. bovis P-7101.

With `Nc1c(F)c(N2CCNCC2)c(F)c2c1c(=O)c(C(=O)O)cn2C1CC1` [Compound 3, 5-Amino-1-cyclopropyl-6,8-difluoro-7-(1-piperazinyl)-1,4-dihydro-4-oxoquinoline-3-carboxylic acid], the MIC with S. aureus No. 80 is 0.05 µg/mL (≈ 0.137 µM); in the data set on S. aureus No. 50774, 0.05 µg/mL (≈ 0.137 µM); in the data set on S. epidermidis No. 8, 0.05 µg/mL (≈ 0.137 µM); in the data set on P. aeruginosa No. 12 it was 0.2 µg/mL (≈ 0.549 µM); with S. aureus 209P JC-1, 0.05 µg/mL (≈ 0.137 µM); in the data set with Al. faecalis P-7001, 0.2 µg/mL (≈ 0.549 µM). Further, the MIC is 0.05 µg/mL (≈ 0.137 µM) with Ac. calcoaceticus P-6901, 0.1 µg/mL (≈ 0.274 µM) with E. coli P-51213, 0.1 µg/mL (≈ 0.274 µM) with B. subtilis PCI 219 and 0.39 µg/mL (≈ 1.07 µM) in the data set on M. bovis P-7101. Moreover, in the data set with male mice (ddY), the oral toxicity entry is “low oral toxicity”. In [1], this molecule came in with an LD50 at 168 h above 2000 mg/kg.

On to `CC1CN(c2c(F)c(N)c3c(=O)c(C(=O)O)cn(C4CC4)c3c2F)CC(C)N1` (stereo not drawn) [Compound 2, 5-Amino-1-cyclopropyl-6,8-difluoro-7-(3,5-dimethyl-1-piperazinyl)-1,4-dihydro-4-oxoquinoline-3-carboxylic acid], for which the MIC in the data set on S. aureus No. 80 is 0.0125 µg/mL (≈ 0.0319 µM); in the data set with S. aureus No. 50774, 0.025 µg/mL (≈ 0.0637 µM); with S. epidermidis No. 8 it was 0.025 µg/mL (≈ 0.0637 µM); in the data set with P. aeruginosa No. 12 it was 0.2 µg/mL (≈ 0.51 µM); in the data set on S. aureus 209P JC-1, 0.05 µg/mL (≈ 0.127 µM); in the data set with Al. faecalis P-7001, 0.2 µg/mL (≈ 0.51 µM). Moreover, the MIC was 0.0125 µg/mL (≈ 0.0319 µM) in the data set with Ac. calcoaceticus P-6901, 0.05 µg/mL (≈ 0.127 µM) with E. coli P-51213, 0.05 µg/mL (≈ 0.127 µM) with B. subtilis PCI 219 and 0.39 µg/mL (≈ 0.994 µM) in the data set on M. bovis P-7101. For the same molecule, the oral toxicity entry in the data set with male mice (ddY) is given as “low oral toxicity”. The same molecule registered an LD50 at 168 h in data set [1] above 2000 mg/kg.

`CCN1CCN(c2c(F)c(N)c3c(=O)c(C(=O)O)cn(C4CC4)c3c2F)CC1` [Compound 5, 5-Amino-1-cyclopropyl-6,8-difluoro-7-(4-ethyl-1-piperazinyl)-1,4-dihydro-4-oxoquinoline-3-carboxylic acid]: the MIC in the data set with S. aureus No. 80 is 0.025 µg/mL (≈ 0.0637 µM); in the data set with S. aureus No. 50774, 0.025 µg/mL (≈ 0.0637 µM); with S. epidermidis No. 8, 0.05 µg/mL (≈ 0.127 µM); in the data set on P. aeruginosa No. 12, 0.39 µg/mL (≈ 0.994 µM); with S. aureus 209P JC-1, 0.05 µg/mL (≈ 0.127 µM); in the data set with Al. faecalis P-7001, 0.2 µg/mL (≈ 0.51 µM). Moreover, the MIC in the data set on Ac. calcoaceticus P-6901 was 0.0125 µg/mL (≈ 0.0319 µM); with E. coli P-51213 it was 0.05 µg/mL (≈ 0.127 µM); in the data set with B. subtilis PCI 219, 0.1 µg/mL (≈ 0.255 µM); with M. bovis P-7101, 0.39 µg/mL (≈ 0.994 µM).

In the case of `Nc1c(F)c(N2CCNC(CF)C2)c(F)c2c1c(=O)c(C(=O)O)cn2C1CC1` (stereo not drawn) [Compound 6, 5-Amino-1-cyclopropyl-6,8-difluoro--7-(3-fluoromethyl-1-piperazinyl)-1,4-dihydro-4-oxoquinoline-3-carboxylic acid], the MIC with S. aureus No. 80 was 0.0063 µg/mL (≈ 0.0159 µM); in the data set on S. aureus No. 50774, 0.0125 µg/mL (≈ 0.0315 µM); in the data set on S. epidermidis No. 8, 0.025 µg/mL (≈ 0.0631 µM); with P. aeruginosa No. 12 it was 0.2 µg/mL (≈ 0.505 µM); in the data set with S. aureus 209P JC-1, 0.025 µg/mL (≈ 0.0631 µM); with Al. faecalis P-7001 it was 0.05 µg/mL (≈ 0.126 µM). For the same molecule, the MIC with Ac. calcoaceticus P-6901 was 0.0063 µg/mL (≈ 0.0159 µM); in the data set on E. coli P-51213 it was 0.05 µg/mL (≈ 0.126 µM); with B. subtilis PCI 219, 0.025 µg/mL (≈ 0.0631 µM); with M. bovis P-7101, 0.1 µg/mL (≈ 0.252 µM).

Consider `CCn1cc(C(=O)O)c(=O)c2c(N)c(F)c(N3CCNCC3)c(F)c21` [Compound A, 5-amino-1-ethyl-6,8-difluoro-7-(1-piperazinyl)-1,4-dihydro-4-oxoquinoline-3-carboxylic acid, reference compound], for which the ED50 in data set [2] is 15 mg/kg; in data set [3] it was above 25 mg/kg. For the same molecule, the MIC in the data set on S. aureus No. 80 is 0.2 µg/mL (≈ 0.568 µM); in the data set with S. aureus No. 50774, 0.2 µg/mL (≈ 0.568 µM); in the data set with S. epidermidis No. 8, 0.39 µg/mL (≈ 1.11 µM); with P. aeruginosa No. 12, 0.78 µg/mL (≈ 2.21 µM); with S. aureus 209P JC-1 it was 0.2 µg/mL (≈ 0.568 µM); in the data set on Al. faecalis P-7001, 0.78 µg/mL (≈ 2.21 µM). Further, the MIC with Ac. calcoaceticus P-6901 is 0.2 µg/mL (≈ 0.568 µM); in the data set on E. coli P-51213 it was 0.39 µg/mL (≈ 1.11 µM); in the data set with B. subtilis PCI 219, 0.39 µg/mL (≈ 1.11 µM); with M. bovis P-7101 it was 3.13 µg/mL (≈ 8.88 µM).
